Marks after values point to notes of the source that are not given here. Where only a bound is given, the exact number is not on record here.

The subject of data set [1] is non-traumatised rats. Description: ICP and blood pressure in non-traumatized rats. In kind it is in vivo, rat. The following applies: i.v. 0.5 mg/kg/min 10 minutes, then 0.1 mg/kg/min 50 min; anaesthetised. How it is done: For comparison, two commercially available H2-agonists (dimaprit and impromidine) were also tested by infusion into non-traumatized rats, using a dose of 0.5 mg/kg/min for 10 minutes for dimaprit and increasing doses up to 3.75 mg/kg/hour for impromidine.
Rats The effect of Compound 2, Compound 1 and Racemate (comp. 1 and comp. 2) on ICP, MABP and CPP was tested in anaesthetised non-traumatised rats. […] Conclusion

Data set [2] deals with Sprague-Dawley rats with closed head injury. Briefly: Closed Head Injury (CHI) model, moderate head injury, treatment 24 h after trauma. The following applies: i.v. 0.5 mg/kg.min 10 min, then 0.1 mg/kg.min 45 min; 24 h after moderate head injury. It is filed as in vivo, rat. The text has this: The impact area was centered between bregma and lamda.
Near-infrared spectroscopy (NIRS) of the rat brain ‘in vivo’ allows to quantify non-invasively saturation of brain haemoglobin with oxygen (HbSat) and total brain haemoglobin concentration ([HbTot]). The latter is a measure for cerebral blood volume (CBV). Changes in the redox state of the mitochondrial enzyme cytochrome oxidase (CytOx), an indicator for tissue oxygenation, can also be monitored.
HbSat is not affected by compound 1 and the racemate (Comp. 1 and Comp. 2).
The effects of treatment with Compound 2 (i.v. infusion at a dose of 0.1 mg/kg.min during 30 min) at 24 h after moderate trauma were studied using different anesthetics (isoflurane, chloralhydrate, pentobarbital). When chloralhydrate (400 mg/kg i.p) is used as anesthetic, ICP decreases to 75% of initial value and MABP gradually increases to 110% of initial value (medians, n=6). […] Barbiturates also reduce the ICP and an important additional effect can be obtained with the compound.

For data set [3], the system named is rabbits with cortical cold lesion. Briefly: Cold lesion-induced rise of ICP in rabbits. It is filed as in vivo, rabbit. The following applies: 2 mg/kg/min for 10 min, one day after cryo-lesion. How it is done:
Cryo-lesions were induced in adult rabbits to obtain a pathological ICP that is caused by tissue oedema. A 8 mm stainless steel rod was placed at predetermined coordinates on the exposed skull of deeply anaesthetised rabbits and cooled for 10 min with liquid nitrogen. One day later the animals were re-anaesthetised and ICP and blood pressure continuously recorded as described for the rat. After a stabilisation period of 15 min, Compound 1 was infused for 10 min at a dose of 2 mg/kg/min. Solvent (preclinical formulation containing 10% HP-β-CD, pH 4) was given for 10 min at a rate of 2 ml/min.

In data set [4] the target is T1, human histamine H1-receptor (Homo sapiens, UniProt P35367).
T1 construct: expressed in transfected cells; host or cells: CHO cells
Description: Radioligand binding, histamine H1-receptor, competitive inhibition of [3H]Pyrilamine. The following applies: CHO-cells transfected with the human histamine H1-receptor, read-out: H1-antagonist activity (pIC50) (converted). How it is done:
Competitive inhibition of [^3H] […] Incubation was done during 150 min at 22° C.

The target of data set [5] is T2, histamine H2-receptor (Cavia porcellus, UniProt P47747).
T2 construct: using guinea pig striatum cells and [^125I]APT as the radioligand; from tissue; host or cells: guinea pig striatum
Description: Radioligand binding, histamine H2-receptor, guinea pig striatum cells, [125I]APT. The following applies: [125I]APT 0.1 nM, 150 min at 22° C., read-out: H2-antagonist activity (pIC50) (converted).

The subject of data set [6] is Sprague-Dawley rats with closed head injury. Briefly: Closed Head Injury (CHI) model, severe head injury.
Description: A clinically relevant rat model for traumatic brain injury was used to test the compounds according to the invention and the commercially available compounds. […] Trauma was induced in intubated, isoflurane anesthetized (1.5% isoflurane in a mixture of 30% O2 and 70% N2O) Sprague-Dawley rats (380-400 g) stereotaxically positioned on a table mounted on 4 springs. A 400 g steel cylinder, protected with a 9 mm diameter silicon disc, was dropped on the unprotected skull from a height of either 70 cm or 50 cm (respectively ‘severe’ and ‘moderate’ head injury). The impact area was centered between bregma and lamda. ICP was recorded using a Codman microsensor probe inserted in the parietal cortex. […] The severe head injury mode was used for the evaluation of pharmacological effects immediately after trauma (screening procedure). […] In pharmacological studies, animals with a pathological ICP between 12.5 and 35 mm Hg were included. The changes in ICP, mean arterial blood pressure (MABP) and cerebral perfusion pressure CPP (=MABP—CPP) were expressed as percentage of the initial value at onset of the treatment.
On a weekly base, 4 treated groups of 3 rats were compared with 3 saline treated animals. Since conventional statistical methods require a larger amount of animals, a sequential procedure was used. Sequential methods operate in different stages. At each stage, a group of animals was selected as homogeneous as possible. Animals were randomly allocated to either drugs or saline. […] Given the biological relevant level of activity that must be detected, the expected fraction of false positive and negative results was known and fixed. A sequential two-sample grouped rank test was used.
Treatment was started at 20 min after severe head injury and involved administering a dose of 0.5 mg/kg/min during 10 minutes, followed by 0.1 mg/kg/min during 50 min.
Ranitidine was infused for 6 min at a dose of 2 mg/kg/min in the rat CHI-model after inflicting severe head injury. Solvent (NaCl+H2T) was given at the same rate. In each group, 6 rats were treated. […] The percentage of reduction are calculated as % change of the ICP recorded at the onset of the treatment and at the end of the infusion.
A number of commercially available H1- and H2-antagonists was infused for 10 min at a dose of 0.5 mg/kg/min in the rat CHI-model after inflicting severe head injury. Solvent (NaCl+H2T) was given at the same rate. In each group, 6 rats were treated.
Setting [7] is: 0.5 mg/kg/min 10 min, then 0.1 mg/kg/min 50 min, start 20 min after severe CHI, n = 10.
[8] abbreviates: i.v. 1 mg/kg/min during 10 min, repeated, start 20 min after severe head injury.

T2 sequence (P47747 whole entry): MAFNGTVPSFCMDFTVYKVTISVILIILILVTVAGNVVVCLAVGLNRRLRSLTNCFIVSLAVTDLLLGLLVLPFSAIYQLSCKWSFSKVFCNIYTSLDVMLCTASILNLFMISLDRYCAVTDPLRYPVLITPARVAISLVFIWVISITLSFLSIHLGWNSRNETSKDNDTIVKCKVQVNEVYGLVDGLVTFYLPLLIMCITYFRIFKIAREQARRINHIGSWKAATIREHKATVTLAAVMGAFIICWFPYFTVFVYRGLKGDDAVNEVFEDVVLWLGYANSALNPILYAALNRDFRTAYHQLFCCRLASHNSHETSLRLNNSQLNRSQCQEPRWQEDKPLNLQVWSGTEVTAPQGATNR
T1 sequence (P35367 whole entry): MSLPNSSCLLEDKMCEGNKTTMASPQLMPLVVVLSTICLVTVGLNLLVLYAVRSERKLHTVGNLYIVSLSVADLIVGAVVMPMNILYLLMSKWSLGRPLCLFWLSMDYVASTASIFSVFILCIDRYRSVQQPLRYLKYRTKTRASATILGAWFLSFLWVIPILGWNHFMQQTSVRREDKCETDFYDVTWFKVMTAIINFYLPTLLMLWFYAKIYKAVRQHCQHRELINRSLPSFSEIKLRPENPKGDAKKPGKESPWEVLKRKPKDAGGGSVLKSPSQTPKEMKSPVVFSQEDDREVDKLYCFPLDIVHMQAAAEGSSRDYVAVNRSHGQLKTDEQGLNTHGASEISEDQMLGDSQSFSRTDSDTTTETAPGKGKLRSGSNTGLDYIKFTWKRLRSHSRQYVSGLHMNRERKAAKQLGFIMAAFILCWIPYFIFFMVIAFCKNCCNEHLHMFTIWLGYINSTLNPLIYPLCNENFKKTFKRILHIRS

In the case of `Cc1nc2n(C)c3ccccc3n2c(=O)c1CCN1CCC(C2c3ccccc3CCn3c2nc2ccccc23)CC1Cc1ccccc1` (single isomer, unassigned) [Compound 1, pyrimido[1,2-a]benzimidazol-4(10H)-one, 3-[2-[4-(11 ,12-dihydro-6H-benzimidazo[2,1-b][3]benzazepin-6-yl)-2-(phenylmethyl)-1-piperidinyl]ethyl]-2,10-dimethyl (E)-2-butenedioate (2:3) hydrate (1:1)], the “effect on ICP, MABP and CPP in non-traumatised rats” value in data set [1] is “comparable with those obtained in the traumatized animals”. Further, in data set [2], the “effect on saturation of brain haemoglobin with oxygen HbSat (NIRS)” value is “not affected”, the “effect on the redox state of CytOx (NIRS)” value was “do not have an effect” and the “effect on total brain haemoglobin concentration [HbTot] (NIRS)” value is “do not have a significant effect”. Moreover, in data set [3], the “ICP after termination of infusion” value is on record as “significant ICP reduction”, the ICP during infusion result was “no immediate decrease in ICP” and the “blood pressure during infusion” value is “blood pressure drops”. In addition, in data set [4], the IC50 is 200 nM. For the same molecule, the IC50 in data set [5] is 1000 nM. In data set [6] (setting [7]), the “CPP (%), average change over treatment period, median (95% C.I.)” value is −1.9 (−8.9; 0.4) %; the “ETCO2 (%), average change over treatment period, median (95% C.I.)” value is 2.2 (−0.8; 8.4) %; the “Heart rate(%), average change over treatment period, median (95% C.I.)” value is −4.1 (−11.4; 1.9) %; the “ICP (%), average change over treatment period, % change of initial value, median (95% C.I.)” value is reported as −15.4 (−22.6; −11.5)* %. In data set [6] (setting [7]), the “MABP (%), average change over treatment period, median (95% C.I.)” value is reported as −3.6 (−11.9; −1.5) % and the “Resp. rate(%), average change over treatment period, median (95% C.I.)” value is recorded as 5.3 (−3.3; 13.6) %. In addition, the “effect on ICP during 10 min infusion (dose response)” value in data set [6] (0.125, 0.25, 0.5, 1 and 2 mg/kg/min for 10 min) is reported as “sustained dose-dependent decrease of ICP”. Also, the “effect on ICP in the 10 min period following the infusion” value in data set [6] (0.125-2 mg/kg/min for 10 min) is “highly significant dose-dependent effect on ICP remains present”. For the same molecule, the “dose yielding a statistically significant larger reduction in ICP than solvent” value in data set [6] (10 min infusion) was not below 1 mg/kg/min. For the same molecule, in data set [6] (setting [8]), the “effect of repeated infusion on ICP” value is on record as “rapid reduction of ICP” and the “effect of repeated infusion on blood pressure” value was “Blood pressure drops during Compound 1 treatment but is restored again after this episode”.

The values are drawn from patent US7732437B2, “Use of anti-histaminics for acute reduction of elevated intracranial pressure” (Janssen Pharmaceutica, NV., priority 2001, dated 2010).
